From US5686426A, “Dicarboxymethylated glycolipid derivatives as cell adhesion inhibitors” (Bristol-Myers Squibb Company, priority 1994, dated 1997)

Legend:
P-selectin = test: P-Selectin Adhesion Receptor Binding (cell-free ELISA, inhibition of P-selectin binding to immobilized sulfatides)
Text: P-selectin (GMP140, granule membrane protein-140, PADGEM, or CD62) is a calcium-dependent transmembrane protein found in alpha granules of endothelial cells and platelets. It is an inducible selectin produced on activated endothelium and platelets which recognize alpha(2-3)sialylated and alpha(1-3)fucosylated lactosaminoglycans which include the sequence, Lewis x (Zhou et al., J. Cell. Biol., (1991) 115 (2): 557-564) and sulfatides (3-sulfated galactosyl ceramides, Aruffo, et al., Cell (1991) 67: 35-44). P-selectin may be responsible for the initial adhesion events between endothelium and neutrophils as evidenced by leukocyte rolling induced by P-selectin in flow cells (Lawrence, M., and T. Springer, Cell (1991) 65: 859-873).
Based on the availability of soluble forms of P-selectin prepared as described by Aruffo, A., et al., Cell, 67, 35-44 (1991), a binding ELISA based assay modified from Foxall, et al., J., Cell Biol., 117, 895-902 (1992) was developed to measure inhibitors of P-selectin binding to immobilized sulfatides. Such inhibitors were tested in the assay described below.
0.1 ml of sulfatide (SIGMA) at 1 μg/ml in MeOH was added to 48 wells of a 96-well ELISA plate (ProBind, Falcon) and allowed to dry overnight at room temperature. Another set of 48 wells were incubated with the solvent (methanol, Fisher Scientific). The next day the antigen/solvent coated plates were blocked for 1.5 hours at room temperature with 5% BSA (ICN) in buffer containing 20 mM Hepes, 1 mM CaCl2 and 0.15M NaCl, pH 8.0. Wild type P-selectin was first mixed with HRP-conjugated goat anti-human IgG (1:5000 dilution, Fisher Scientific), and incubated for 30 minutes at 37° C. in buffer containing 20 mM Hepes, 0.15M NaCl, 1% BSA and 1 mM CaCl2, pH 8.0 prior to addition to the BSA blocked plates. Following the 30 minute preincubation, the fusion protein-HRP conjugate immunocomplexes were incubated on the blocked antigen coated plates for 45 minutes at 37° C. in the presence or absence of the test compounds and then washed to remove any unbound proteins. Bound complexes were detected by addition of substrate buffer (95 mM NaOAc.3H2 O, 5 mM citric acid monohydrate, 1.4 mM urea/H2 O2) containing 3, 3', 5, 5' Tetramethylbenzidine (SIGMA). Reactions were stopped by the addition of 3N sulfuric acid and the absorbance read on an ELISA reader at dual wavelengths 450 and 630 nm. The efficacy of these compounds was compared to that of sulfatide (positive control) or to MeOH (negative control). The data is obtained as percent inhibition of specific binding [formula] and a plot of dose vs. percent inhibition of Rg binding is generated in which IC50 (μM) is calculated and reported as cell free data in Table 1.

[1] = tested on: HL-60 cells / activated platelets (P-selectin); test: HL-60 Platelet Cell Adhesion Assay; assay type: cell-based; conditions: HL-60 cell adhesion to thrombin-activated human platelets
Procedure: HL-60 cells, obtained from American Type Culture Collection, were cultured in RPMI 1640 medium (GIBCO) supplemented with 20% fetal calf serum (Sigma) and 50 μg/ml gentamicin (GIBCO). Cells in log phase growth were harvested, washed and resuspended in Tyrodes buffer containing 5 mM HEPES and 0.2% bovine serum albumin and were fixed with 1% buffered formalin.
Blood from normal human donors was anticoagulated with citrate, layered over 1-Step Platelets (Accurate Chemical Co.), and centrifuged at 350 g for 20 minutes at room temperature. The platelet band was collected, diluted in 2 volumes of Tyrode's Buffer with 5 mM HEPES, 10 mM EDTA, and 0.2% BSA (pH 7.4) (THEB) and centrifuged at 600 g for 10 minutes. The platelet pellet was resuspended in THEB and incubated at room temperature for 1 hour. Calcein-acetoxy methylester (Calcein-Am, Molecular Probes) was added to the platelets at a final concentration of 10 μM and incubated for 10 minutes at 37° C. to label the platelets. Without washing, the platelets were counted on a Coulter counter model ZM, and the concentration was adjusted to 1×10^7 /ml. The platelets were activated with 2 U/ml of human thrombin for 10 minutes in Tyrode's containing 2 mM CaCl2, 5 mM HEPES, and 0.2% BSA (pH 7.4) (THB) at 37° and immediately fixed with 1% buffered formalin for 1 to 2 hours at room temperature. A small aliquot of labeled platelets was removed before activation and designated as non-activated.
Both platelets and HL-60 were washed in a ≥5 fold excess volume of Hanks Balanced Salt Solution (HBSS), resuspended in THB and counted. Cell concentrations were adjusted to 2×10^7 /ml for platelets and 4×10^6 /ml for HL-60, this ratio determined to be optimum for platelet: HL-60 cell adhesion. Compounds were incubated with 50 μl of platelets for 30 minutes at room temperature before addition of 50 μl of HL-60. This ratio of 5:1 platelets to HL-60 was incubated for 30 minutes at room temperature before addition of 0.2 ml of THB to increase the volume so the samples could be analyzed on a FACScan cytometer (Becton Dickinson). Non-activated platelets, and activated platelets with 10 mM EDTA were included as controls. Data were collected within a region set for the forward scatter channel corresponding to HL-60 size events.
The percent HL-60 cells which contained bound platelets was determined for each test condition. The inhibition of binding was determined by comparison to standards which were treated with vehicle alone (representing 0% inhibition) and standards whose specific binding had been blocked by the use of EDTA (representing 100% inhibition), by the following formula: [formula] where x=HL-60 cells containing bound platelets in the presence of the compound;
b=HL-60 cells containing bound platelets in the presence of EDTA;
a=HL-60 cells containing bound platelets in presence of compound vehicle;
z=% inhibition of platelet: HL-60 cell adhesion

Row | SMILES | IC50 (P-selectin) | IC50 [1]
1 | CCCCCCCCCCCCC/C=C/[C@@H](OC(=O)c1ccccc1)[C@H](CO[C@H]1O[C@H](COCC(=O)O)[C@H](OCC(=O)O)[C@H](OC(=O)c2ccccc2)[C@H]1OC(=O)c1ccccc1)NC(=O)CCCCCCCCCCCCCCC [Example 2, (2S,3R,4E)-3-Benzoyloxy-2-hexadecanoylamino-1-[2,3-di-O-benzoyl-4,6-di-O-carboxymethyl-α-D-galactopyranosyloxy]-4-octadecene] | 0.92 µM | 32 µM
2 | CCCCCC/C=C/[C@@H](OC(=O)c1ccccc1)[C@H](CO[C@H]1O[C@H](COCC(=O)O)[C@H](OCC(=O)O)[C@H](OC(=O)c2ccccc2)[C@H]1OC(=O)c1ccccc1)NC(=O)CCCCCCCCC(=O)OC [Example 8, (2S,3R,4E)-3-Benzoyloxy-2-(9-methoxycarbonyl-nonanoylamino)-1-(2,3-di-O-benzoyl-4,6-di-O-carboxymethyl-α-D-galactopyranosyloxy)-4-undecene] | > 50 µM | > 100 µM
3 | CCCCCCCCCCCCC/C=C/[C@@H](OC(=O)c1ccccc1)[C@H](CO[C@@H]1O[C@H](COCC(=O)O)[C@H](OCC(=O)O)[C@H](OC(=O)c2ccccc2)[C@H]1OC(=O)c1ccccc1)NC(=O)CCCCCCCCCCCCCCC [Example 16, (2S,3R,4E)-2-Hexadecanoylamino-3-benzoyloxy-1-(4,6-di-O-carboxymethyl-2,3-di-O-benzoyl-β-D-galactopyranoside)-4-octadecene] | 3.5 µM | 10.1 µM

More lines, now with the values ahead:

Row | IC50 (P-selectin) | IC50 [1] | SMILES
4 | 0.7 µM | 20 µM | CCCCCCCCCCCCC/C=C/[C@@H](OC(=O)c1ccccc1)[C@H](CO[C@H]1O[C@H](COCC(=O)O)[C@H](OCC(=O)O)[C@H](O)[C@H]1OC(=O)c1ccccc1)NC(=O)CCCCCCCCCCCCCCC [Example 14, (2S,3R,4E)-3-Benzoyloxy-2-hexadecanoylamino-1-[2-O-benzoyl-4,6-di-O-carboxymethyl-α-D-galactopyranosyloxy]-4-octadecene]
5 | < 0.03 µM | 7 µM | CCCCCCCCCCCCC/C=C/[C@@H](OC(=O)c1ccccc1)[C@H](CO[C@@H]1O[C@H](COCC(=O)O)[C@H](OCC(=O)O)[C@H](OC(=O)c2ccccc2)[C@H]1O)NC(=O)CCCCCCCCCCCCCCC [Example 18, (2S,3R,4E)-3-Benzoyloxy-2-hexadecanoylamino-1-[3-O-benzoyl-4,6-di-O-carboxymethyl-β-D-galactopyranosyloxy]-4-octadecene]
